What was measured:
[1] = test system: hyperlipoidemia model of Goldenhamsters (blood plasma TC, TG, HDL-C, LDL-C); experiment: Pharmacological test group 1: effects on blood lipid levels of Goldenhamsters in a hyperlipoidemia model; format: in vivo; details: for regulating effects on the levels of blood lipid (conclusion from table 2) / effect on HDL-C, in comparison with the results before administration (in words) / effect on TC, in comparison with the results before administration (in words) / effect on TG, in comparison with the results before administration (in words) / therapeutic effect compared with fenofibrate (conclusion from table 2): 40 mg/kg; for HDL-C, after administration / LDL-C, after administration / TC, after administration / TG, after administration: 40 mg/kg intragastric, 1 week, high-lipid feed continued, blood plasma, x±s, asterisks = P vs before administration; for effect on HDL-C, in comparison with the results before administration (in words) / effect on TC, in comparison with the results before administration (in words) / effect on TG, in comparison with the results before administration (in words): t test after vs before administration; for therapeutic effect compared with fenofibrate (conclusion from table 2): fenofibrate 40 mg/kg
Text: Animals: 134 male Goldenhamsters, aged 8 weeks, body weight 80-100 g, provided by Vital River Laboratories, Beijing. […] Kits: The kits for total cholesterol (TC), triglyceride (TG), and high density lipoprotein cholesterol (HDL-C) were provided by SYSMEX, and the kits for low density lipoprotein cholesterol (LDL-C) were provided by Shanghai Kehua Bio-engineering Co., Ltd. Apparatus: SYSMEX Automatic Biochemistry Analyzer, Bechman centrifuge, Setoris balance. The animals were acclimatized and fed for 1 week, ad lib, light cycle was 10 h/14 h, and then feeds with high lipid content were fed to the animals (formulation: 0.3% cholesterol, 20% palm oil, and 79.7% basic feeds). The animals were fed for 10 days, and were fasted at 4:00 pm on the 10th day (fasted for 16 h). On the 11th day, the animals were anaesthetized with ethyl ether, weighted, and then 0.5 ml blood was collected from vena orbitalis posterior. The blood was anticoagulated with heparin, and was centrifugated at 5000 rpm for 10 min. The blood plasma was taken, and the levels of TC, TG, HDL-C, and LDL-C in blood plasma were determined using automatic biochemistry analyzer. The animals were acclimatized and fed for 1 week, ad lib, light cycle was 10 h/14 h, and then feeds with high lipid content were fed to the animals (formulation: 0.3% cholesterol, 20% palm oil, and 79.7% basic feeds). The animals were fed for 2 weeks, and were fasted at 4:00 pm on the […] (fasted for 16 h). On the 22nd day, the animals were anaesthetized with ethyl ether, weighted, and then 0.5 ml blood was collected from vena orbitalis posterior. The blood was anticoagulated with heparin, and was centrifugated at 5000 rpm for 10 min. The blood plasma was taken, and the levels of TC, TG, HDL-C, and LDL-C in blood plasma were determined using automatic biochemistry analyzer. […] During the administration, feeds with high lipid content were continuously fed to the animals. The animals were fed for 1 week, and were fasted at 4:00 pm on the 7th day. On the 8th day, the animals were anaesthetized with ethyl ether, weighted, and then 0.5 ml blood was collected from vena orbitalis posterior. The blood was anticoagulated with heparin, and was centrifugated at 5000 rpm for 10 min. The blood plasma was taken, and the levels of TC, TG, HDL-C, and LDL-C in blood plasma were determined using automatic biochemistry analyzer. The results were represented by x±s, and t test was employed for comparing the results obtained before and after administration.

[2] = test system: hyperlipoidemia model of Goldenhamsters (blood plasma TC, HDL-C, LDL-C); experiment: Pharmacological test group 2: effects on blood lipid levels of Goldenhamsters in hyperlipoidemia model; format: in vivo; details: for HDL-C, after administration / LDL-C, after administration / TC, after administration: 40 mg/kg intragastric, 1 week, high-lipid feed continued, asterisks = P vs before administration; for HDL-C, after administration / LDL-C, after administration / TC, after administration / HDL-C, before administration / LDL-C, before administration / TC, before administration: blood plasma, x±s; for HDL-C, before administration / LDL-C, before administration / TC, before administration: baseline of the group before administration, high-lipid feed 2 weeks, 6 animals
Text: Animals: 120 male Goldenhamsters, aged 8 weeks, body weight 80-100 g, provided by Vital River Laboratories, Beijing.
Kits: The kits for total cholesterol (TC) and high density lipoprotein cholesterol (HDL-C) were provided by SYSMEX, and the kits for low density lipoprotein cholesterol (LDL-C) were provided by Shanghai Kehua Bio-engineering Co., Ltd.
Apparatus: SYSMEX Automatic Biochemistry Analyzer, Bechman centrifuge, Setoris balance.
The animals were acclimatized and fed for 1 week, ad lib, light cycle was 10 h/14 h, and then feeds with high lipid content were fed to the animals (formulation: 0.3% cholesterol, 20% palm oil, and 79.7% basic feeds). The animals were fed for 2 weeks, and were fasted at 4:00 pm on the 14th day (fasted for 16 h). On the 15th day, the animals were anaesthetized with ethyl ether, weighted, and then 0.5 ml blood was collected from vena orbitalis posterior. The blood was anticoagulated with heparin, and was centrifugated at 5000 rpm for 10 min. The blood plasma was taken, and the levels of TC, HDL-C, and LDL-C in blood plasma were determined using automatic biochemistry analyzer.
During the administration, feeds with high lipid content were continuously fed to the animals. The animals were fed for 1 week, and were fasted at 4:00 pm on the 7th day. On the 8th day, the animals were anaesthetized with ethyl ether, weighted, and then 0.5 ml blood was collected from vena orbitalis posterior. The blood was anticoagulated with heparin, and was centrifugated at 5000 rpm for 10 min. The blood plasma was taken, and the levels of TC, HDL-C, and LDL-C in blood plasma were determined using automatic biochemistry analyzer.
The results were represented by x±s, and t test was employed for comparing the results obtained before and after administration.

[3] = Solubility in water (remark on the test drugs); format: physicochemical; details: formulated with 20% solutol
[4] = 40 mg/kg, t test after vs before administration

Compound	regulating effects on the levels of blood lipid (conclusion from table 2) [1]	HDL-C, after administration [1]	LDL-C, after administration [1]	TC, after administration [1]	TG, after administration [1]	effect on TC, in comparison with the results before administration (in words) [1]	effect on TG, in comparison with the results before administration (in words) [1]	solubility in water [3]	other results
CC(C)OC(=O)C(C)(C)Oc1ccc(C(F)(F)c2ccc(F)cc2)cc1 [HS003-006, Isopropyl 2-(4-((4-fluorophenyl)difluoromethyl)phenoxy)-2-methylpropionate]	tend to the effects of significantly decreasing TG, TC, and LDL-C	3.64 ± 0.31	1.02 ± 0.27	8.96 ± 0.77	1.06 ± 0.29	significantly decreases	significantly decreases		effect on HDL-C, in comparison with the results before administration (in words) [1]: increases
Cc1cc(OC(C)(C)C(=O)OC(C)C)ccc1C(F)(F)c1ccc(Cl)cc1 [HS003-019, Isopropyl 2-(4-((4-chlorophenyl)difluoromethyl)-3-methylphenoxy)-2-methylpropionate]								insoluble	blood lipid-regulating effects (conclusion from table 3) ([2]; 40 mg/kg): excellent blood lipid-regulating effects; HDL-C, after administration [2]: 1.84 ± 0.21; LDL-C, after administration [2]: 1.83 ± 0.56; TC, after administration [2]: 10.62 ± 1.02; therapeutic effect compared with fenofibrate (conclusion from table 3) ([2]; 40 mg/kg, fenofibrate 40 mg/kg): outstanding therapeutic effects, and are superior to fenofibrate; effect on LDL-C, in comparison with the results before administration (in words) [2, 4]: significantly decreases; effect on TC, in comparison with the results before administration (in words) [2, 4]: significantly decreases; HDL-C, before administration [2]: 1.67 ± 0.22; LDL-C, before administration [2]: 3.12 ± 1.47; TC, before administration [2]: 13.99 ± 2.28
Cc1cccc(C(F)(F)c2ccc(OC(C)(C)C(=O)OC(C)C)cc2)c1 [HS003-012, Isopropyl 2-(4-((3-methylphenyl)difluoromethyl)phenoxy)-2-methylpropionate]								insoluble	
Cc1ccccc1C(F)(F)c1ccc(OC(C)(C)C(=O)OC(C)C)cc1 [HS003-015, Isopropyl 2-(4-((2-methylphenyl)difluoromethyl)phenoxy)-2-methylpropionate]								insoluble	HDL-C, after administration [2]: 1.77 ± 0.18; LDL-C, after administration [2]: 2.26 ± 1.03; TC, after administration [2]: 15.3 ± 3.74; effect on HDL-C, in comparison with the results before administration (in words) [2, 4]: significantly increases; HDL-C, before administration [2]: 1.54 ± 0.07; LDL-C, before administration [2]: 3.14 ± 1.22; TC, before administration [2]: 13.99 ± 2.3
COC(=O)c1ccc(C(F)(F)c2ccc(OC(C)(C)C(=O)OC(C)C)cc2)cc1 [HS003-017, Isopropyl 2-(4-((4-methoxyacylphenyl)difluoromethyl)phenoxy)-2-methylpropionate]	tend to the effect of significantly decreasing TG and increasing HDL-C	4.09 ± 0.18	1.41 ± 0.34	11.61 ± 1.42	0.81 ± 0.15		significantly decreases		therapeutic effect compared with fenofibrate (conclusion from table 2) [1]: outstanding therapeutic effects on decreasing TG, and are significantly superior to fenofibrate
CCOC(=O)CCCOc1ccc(C(F)(F)c2ccc(Cl)cc2)cc1 [HS003-026, Ethyl 4-(4-((4-chlorophenyl)difluoromethyl)phenoxy)butyrate]	tend to the effect of significantly decreasing TG and increasing HDL-C	4.13 ± 0.32	1.69 ± 0.47	11.18 ± 1.6	0.82 ± 0.24		significantly decreases		therapeutic effect compared with fenofibrate (conclusion from table 2) [1]: outstanding therapeutic effects on decreasing TG, and are significantly superior to fenofibrate; effect on HDL-C, in comparison with the results before administration (in words) [1]: significantly increases
CC(C)OC(=O)C(C)(C)Oc1ccc(C(F)(F)c2cccc(C(F)(F)F)c2)cc1 [HS003-013, Isopropyl 2-(4-((3-trifluoromethylphenyl)difluoromethyl)phenoxy)-2-methylpropionate]	tend to the effects of significantly decreasing TG, TC, and LDL-C	3.12 ± 0.25	1.46 ± 0.46	8.93 ± 0.53	1.84 ± 0.45	significantly decreases			
CC(C)OC(=O)C(C)(C)Oc1ccc(C(F)(F)c2ccc(C(F)(F)F)cc2)cc1 [HS003-007, Isopropyl 2-(4-((4-trifluoromethylphenyl)difluoromethyl)phenoxy)-2-methylpropionate]	tend to the effects of significantly decreasing TG, TC, and LDL-C	2.99 ± 0.13	1.26 ± 0.22	7.42 ± 0.71	2.12 ± 0.43	significantly decreases			
Cc1ccc(C(F)(F)c2ccc(OC(C)(C)C(=O)OC(C)C)cc2)cc1 [HS003-009, Isopropyl 2-(4-((4-methylphenyl)difluoromethyl)phenoxy)-2-methylpropionate]								insoluble	
CC(C)OC(=O)C(C)(C)Oc1ccc(C(F)(F)c2ccccc2C(F)(F)F)cc1 [HS003-016, Isopropyl 2-(4-((2-trifluoromethylphenyl)difluoromethyl)phenoxy)-2-methylpropionate]	tend to the effects of significantly decreasing TG, TC, and LDL-C	3.40 ± 0.32	1.0 ± 0.23	8.44 ± 1.12	1.23 ± 0.42	significantly decreases			
CC(C)OC(=O)C(C)(C)Oc1ccc(C(F)(F)c2cccc(Cl)c2)cc1 [HS003-011, Isopropyl 2-(4-((3-chlorophenyl)difluoromethyl)phenoxy)-2-methylpropionate]								insoluble	blood lipid-regulating effects (conclusion from table 3) ([2]; 40 mg/kg): excellent blood lipid-regulating effects; HDL-C, after administration [2]: 1.93 ± 0.91; LDL-C, after administration [2]: 2.21 ± 0.91; TC, after administration [2]: 11.94 ± 2.71; effect on HDL-C, in comparison with the results before administration (in words) [2, 4]: increase; effect on LDL-C, in comparison with the results before administration (in words) [2, 4]: significantly decreases; HDL-C, before administration [2]: 1.46 ± 0.16; LDL-C, before administration [2]: 4.02 ± 1.34; TC, before administration [2]: 13.91 ± 2.34
O=C(COc1ccc(C(F)(F)c2ccc(Cl)cc2)cc1)OCc1ccccc1 [HS003-021, Benzyl 2-(4-((4-chlorophenyl)difluoromethyl)phenoxy)-acetate]	tend to the effect of significantly decreasing TG and increasing HDL-C	4.46 ± 0.23	2.08 ± 0.89	13.37 ± 3.3	1.1 ± 0.53		significantly decreases		effect on HDL-C, in comparison with the results before administration (in words) [1]: significantly increases

From patent publication US9487470B2, “4-((substituted phenyl) difluoromethyl) phenoxy carboxylic acid derivative, and preparation method and uses thereof” (Zhejiang Hisun Pharmaceutical Co., Ltd., priority 2012, dated 2016)
